The NIST ThermoML archive (doi:10.1021/acs.jced.7b00213)

Test: xn = mol fraction of the nth substance listed
Details: Gas, Buoyancy - hydrostatic balance with magnetic suspension - two sinkers, x1 = 0.05362

[HH] [hydrogen] + O=C=O
Details	mass density [kg/m3]
273.15 K, 513.52 kPa	9.74868
273.15 K, 1039.6 kPa	20.4494
273.15 K, 1524.6 kPa	31.0881
273.15 K, 2022.4 kPa	42.9575
273.15 K, 2536.9 kPa	56.521
273.15 K, 3036 kPa	71.3532
293.15 K, 503.16 kPa	8.83486
293.15 K, 1014.6 kPa	18.2895
293.15 K, 1992 kPa	37.9543
293.15 K, 3016.7 kPa	61.5091
293.15 K, 4051.1 kPa	89.7154
293.15 K, 4984.9 kPa	121.352
323.15 K, 549.21 kPa	8.70026
323.15 K, 1038.1 kPa	16.7369
323.15 K, 2031.1 kPa	34.0104
323.15 K, 3009.8 kPa	52.4905
323.15 K, 4029.4 kPa	73.5962
323.15 K, 5030.4 kPa	96.6051
323.15 K, 5997.4 kPa	121.561
